According to BigSolDB 2.1:

NNC(=O)c1ccccc1O
solubility (mole fraction)
Conditions | 283.15 K | 288.15 K | 293.15 K | 298.15 K | 303.15 K | 308.15 K | 313.15 K | 318.15 K | 323.15 K
in ethanol | 0.0095 | 0.0115 | 0.0132 | 0.0161 | 0.0189 | 0.0224 | 0.0278 | 0.0316 | 0.0379
in isopropanol | 0.00719 | 0.00841 | 0.0102 | 0.0124 | 0.015 | 0.0181 | 0.0219 | 0.0261 | 0.0316
in methanol | 0.0122 | 0.015 | 0.017 | 0.0198 | 0.0243 | 0.0278 | 0.0326 | 0.0382 | 0.0462
in n-butanol | 0.00861 | 0.00985 | 0.0115 | 0.013 | 0.0148 | 0.0165 | 0.0188 | 0.0216 | 0.025
in n-propanol | 0.00748 | 0.0097 | 0.0112 | 0.0138 | 0.016 | 0.0189 | 0.024 | 0.0283 | 0.0334
in water | 0.0122 | 0.0146 | 0.0182 | 0.0223 | 0.028 | 0.0355 | 0.0435 | 0.0541 | 0.0665

NNC(=O)c1ccccc1
solubility (mole fraction)
Conditions | 283.15 K | 288.15 K | 293.15 K | 298.15 K | 303.15 K | 308.15 K | 313.15 K | 318.15 K | 323.15 K
in ethanol | 0.0137 | 0.0169 | 0.0203 | 0.0283 | 0.0376 | 0.0481 | 0.0605 | 0.0805 | 0.101
in isopropanol | 0.0112 | 0.0135 | 0.0173 | 0.0231 | 0.0299 | 0.0384 | 0.0489 | 0.0623 | 0.0761
in methanol | 0.0363 | 0.0425 | 0.0515 | 0.0605 | 0.0727 | 0.0843 | 0.103 | 0.118 | 0.137
in n-butanol | 0.0087 | 0.0107 | 0.0132 | 0.0185 | 0.0244 | 0.0321 | 0.041 | 0.0519 | 0.0665
in n-propanol | 0.0129 | 0.0155 | 0.019 | 0.026 | 0.0319 | 0.0421 | 0.0536 | 0.068 | 0.0834
in water | 0.00505 | 0.00662 | 0.00868 | 0.0116 | 0.0154 | 0.0203 | 0.0267 | 0.0348 | 0.0453
